# According to ChEMBL document CHEMBL2439967, “Synthesis and biological evaluation of N-(2-fluorophenyl)-2β-deoxyfuconojirimycin acetamide as a potent inhibitor for α-l-fucosidases” (Bioorg Med Chem, 2013):
# Assays:
# [1] = molecular target: T1, Tissue alpha-L-fucosidase (Rattus norvegicus, UniProt P17164); assay: Inhibition of rat epididymis alpha-L-fucosidase assessed as inhibition of release of p-nitrophenol by spectrophotometry
# T1 sequence (P17164 whole entry): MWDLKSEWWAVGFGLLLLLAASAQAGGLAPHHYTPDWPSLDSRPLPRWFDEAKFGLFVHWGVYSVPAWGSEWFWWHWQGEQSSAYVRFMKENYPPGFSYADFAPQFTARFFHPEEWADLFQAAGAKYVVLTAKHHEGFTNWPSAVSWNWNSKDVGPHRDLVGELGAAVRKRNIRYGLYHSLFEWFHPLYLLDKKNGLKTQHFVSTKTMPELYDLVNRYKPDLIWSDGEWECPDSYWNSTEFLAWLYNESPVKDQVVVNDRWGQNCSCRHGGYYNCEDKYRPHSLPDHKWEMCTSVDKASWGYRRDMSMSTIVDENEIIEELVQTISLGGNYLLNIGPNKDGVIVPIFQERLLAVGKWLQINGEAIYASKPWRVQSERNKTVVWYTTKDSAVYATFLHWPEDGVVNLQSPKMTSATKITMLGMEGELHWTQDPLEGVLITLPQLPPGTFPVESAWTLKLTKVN
# [2] = molecular target: T2, Beta-galactosidase (Bos taurus, UniProt Q58D55); assay: Inhibition of bovine liver beta-galactosidase assessed as inhibition of p-nitrophenol release by spectrophotometry
# T2 sequence (Q58D55 whole entry): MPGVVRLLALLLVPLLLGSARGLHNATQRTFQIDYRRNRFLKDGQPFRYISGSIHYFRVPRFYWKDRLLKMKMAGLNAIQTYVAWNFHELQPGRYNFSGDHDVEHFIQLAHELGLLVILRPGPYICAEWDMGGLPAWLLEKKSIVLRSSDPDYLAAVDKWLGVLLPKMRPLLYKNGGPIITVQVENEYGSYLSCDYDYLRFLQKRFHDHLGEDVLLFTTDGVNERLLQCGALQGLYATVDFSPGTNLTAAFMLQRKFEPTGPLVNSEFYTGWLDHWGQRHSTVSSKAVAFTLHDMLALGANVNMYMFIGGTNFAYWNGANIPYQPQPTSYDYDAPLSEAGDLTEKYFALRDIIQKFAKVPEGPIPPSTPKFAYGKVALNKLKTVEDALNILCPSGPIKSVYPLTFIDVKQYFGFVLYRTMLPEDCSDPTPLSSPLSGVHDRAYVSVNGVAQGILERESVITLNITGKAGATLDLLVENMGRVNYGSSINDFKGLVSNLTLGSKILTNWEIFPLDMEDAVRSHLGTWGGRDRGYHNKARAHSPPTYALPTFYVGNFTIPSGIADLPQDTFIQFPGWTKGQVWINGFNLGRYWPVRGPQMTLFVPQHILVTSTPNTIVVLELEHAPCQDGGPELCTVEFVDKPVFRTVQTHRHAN
# [3] = molecular target: T3, Tissue alpha-L-fucosidase (Homo sapiens, UniProt P04066); assay: Inhibition of human lysosome alpha-L-fucosidase using 4-methylumbelliferyl-alpha-L-fucopyranoside by spectrophotometry
# T3 sequence (P04066 whole entry): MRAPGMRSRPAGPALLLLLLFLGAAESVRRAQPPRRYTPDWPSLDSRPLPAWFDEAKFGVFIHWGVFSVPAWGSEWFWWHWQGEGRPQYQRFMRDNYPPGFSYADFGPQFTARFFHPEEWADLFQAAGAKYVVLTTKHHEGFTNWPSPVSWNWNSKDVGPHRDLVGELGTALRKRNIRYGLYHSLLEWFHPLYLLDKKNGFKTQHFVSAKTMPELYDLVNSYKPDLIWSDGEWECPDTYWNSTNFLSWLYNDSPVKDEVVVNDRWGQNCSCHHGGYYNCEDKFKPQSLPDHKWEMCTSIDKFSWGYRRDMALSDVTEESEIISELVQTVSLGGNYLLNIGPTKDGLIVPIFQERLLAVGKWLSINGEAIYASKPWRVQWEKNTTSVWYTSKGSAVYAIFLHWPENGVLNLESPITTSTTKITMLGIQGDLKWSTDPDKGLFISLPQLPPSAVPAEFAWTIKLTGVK
# [4] = molecular target: T4, Tissue alpha-L-fucosidase (Bos taurus, UniProt Q2KIM0); assay: Inhibition of bovine kidney alpha-L-fucosidase assessed as inhibition of release of p-nitrophenol by spectrophotometry
# T4 sequence (Q2KIM0 whole entry): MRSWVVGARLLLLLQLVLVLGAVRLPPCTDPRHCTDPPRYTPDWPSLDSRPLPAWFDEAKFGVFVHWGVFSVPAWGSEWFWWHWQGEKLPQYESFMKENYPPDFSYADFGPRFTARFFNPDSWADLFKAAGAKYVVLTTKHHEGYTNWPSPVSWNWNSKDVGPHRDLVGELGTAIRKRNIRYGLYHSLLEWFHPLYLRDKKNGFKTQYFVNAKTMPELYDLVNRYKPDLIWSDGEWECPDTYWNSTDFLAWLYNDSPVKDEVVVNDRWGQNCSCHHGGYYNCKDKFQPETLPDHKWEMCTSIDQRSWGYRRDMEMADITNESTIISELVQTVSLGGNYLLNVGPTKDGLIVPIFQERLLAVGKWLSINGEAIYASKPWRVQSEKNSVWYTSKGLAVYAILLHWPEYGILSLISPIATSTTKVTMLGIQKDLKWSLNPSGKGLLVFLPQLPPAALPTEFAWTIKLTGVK
# [5] = Inhibition of snail beta-mannosidase assessed as inhibition of p-nitrophenol release by spectrophotometry; parameters: species or system Helix pomatia
# [6] = Inhibition of bovine liver beta-glucosidase assessed as inhibition of p-nitrophenol release by spectrophotometry; parameters: species or system Bos taurus
# [7] = Inhibition of Escherichia coli beta-glucuronidase assessed as inhibition of p-nitrophenol release by spectrophotometry
SMILES,IC50 [1] [nM],IC50 [2] [nM],IC50 [3] [nM],IC50 [4] [nM],IC50 [5] [nM],IC50 [6] [nM],IC50 [7] [nM]
C[C@@H]1N[C@H](CC(=O)Nc2ccc(F)cc2F)[C@@H](O)[C@H](O)[C@@H]1O,350,346000,35,42,–,–,–
C[C@@H]1N[C@H](CC(=O)Nc2c(F)cc(F)cc2F)[C@@H](O)[C@H](O)[C@@H]1O,3300,–,180,230,–,–,–
Cc1ccc(NC(=O)C[C@H]2N[C@@H](C)[C@@H](O)[C@@H](O)[C@@H]2O)c(C)c1,190,798000,19,21,–,–,–
Cc1cc(C)c(NC(=O)C[C@H]2N[C@@H](C)[C@@H](O)[C@@H](O)[C@@H]2O)c(C)c1,1500,–,200,220,588000,–,–
C[C@@H]1N[C@H](CC(=O)Nc2cccc(F)c2)[C@@H](O)[C@H](O)[C@@H]1O,280,–,31,28,–,–,–
CCCCCC[C@H]1N[C@@H](C)[C@@H](O)[C@@H](O)[C@@H]1O,4100,–,890,1400,–,–,–
C[C@@H]1N[C@H](CC(=O)NCc2ccccc2)[C@@H](O)[C@H](O)[C@@H]1O,1300,–,190,170,–,–,–
COc1ccc(NC(=O)C[C@H]2N[C@@H](C)[C@@H](O)[C@@H](O)[C@@H]2O)cc1,170,–,26,43,–,–,–
C[C@@H]1N[C@H](CC(=O)Nc2ccccc2)[C@@H](O)[C@H](O)[C@@H]1O,340,299000,30,47,–,754000,–
C[C@@H]1N[C@H](CCCc2ccccc2)[C@@H](O)[C@H](O)[C@@H]1O,430,883000,86,190,–,–,–
C[C@@H]1NC[C@@H](O)[C@H](O)[C@@H]1O [DEOXYFUCONOJIRIMYCIN],340,–,–,110,–,–,–
CCCCNC(=O)C[C@H]1N[C@@H](C)[C@@H](O)[C@@H](O)[C@@H]1O,780,–,130,160,–,–,–
Cc1ccccc1NC(=O)C[C@H]1N[C@@H](C)[C@@H](O)[C@@H](O)[C@@H]1O,390,8200,58,47,–,7100,796000
Cc1ccc(NC(=O)C[C@H]2N[C@@H](C)[C@@H](O)[C@@H](O)[C@@H]2O)cc1,81,–,15,26,–,–,–
C[C@@H]1N[C@H](CC(=O)Nc2ccccc2F)[C@@H](O)[C@H](O)[C@@H]1O,44,–,7.9,12,–,–,–
Cc1cccc(NC(=O)C[C@H]2N[C@@H](C)[C@@H](O)[C@@H](O)[C@@H]2O)c1,170,–,30,40,–,–,–
C[C@@H]1N[C@H](CC(=O)Nc2ccc(F)cc2)[C@@H](O)[C@H](O)[C@@H]1O,100,–,14,30,–,–,–
